Source: US7105502B2, “Nitric oxide-releasing imidate and thioimidate diazeniumdiolates” (The United States of America as represented by the …, priority 2001, dated 2006)

Legend:
[1] = Detection of NO released in solution, headspace swept with argon into a chemiluminescence detector; assay type: physicochemical
Protocol: The nitrites and all solvents were purchased from Aldrich Chemical Company (Milwaukee, Wis.). Nitric oxide was obtained form Matheson Gas Products (Montgomeryville, Pa.). The ^1H NMR and ^13C NMR spectra were recorded in D2O (^1H at 300 MHz; ^13C at 75 MHz). Ultraviolet spectra (10 mM NaOH unless otherwise specified) and kinetic information were obtained on a Hewlett Packard 8452A UV-visible spectrophotometer with a thermostated cell holder. Infrared data was recorded on a Perkin-Elmer 1430 infrared spectrometer. Nitric oxide was measured with a Thermal Energy Analyzer model 502A (Thermedics, Inc., Woburn, Mass.). Melting points are uncorrected. Elemental analyses were performed by Atlantic Microlab, Inc. (Norcross, Ga.).
(§1) For the detection of NO, selected compounds from the examples were dissolved in either pH 7.4 buffer or 10% H2SO4, and the headspace was swept with argon into a chemiluminescence detector. The detection of nitrous oxide (N2O), formed from the dimerization and dehydration of HNO, was done by gas chromatography in both pH 7.4 buffer and 0.1 M HCl.

[2] = Detection of nitrous oxide (N2O) by gas chromatography; assay type: physicochemical; details: acid (0.1 M HCl)
Protocol: as §1

1-naphthyl diazeniumdiolate amide [Example 9]
NO (mole gas/mole cmpd) ([1]; acid (10% H2SO4)): 0.02 mole gas/mole cmpd | NO (mole gas/mole cmpd) ([1]; pH 7.4 buffer): 0.16 mole gas/mole cmpd

benzyl diazeniumdiolate methoxy imidate [Example 2]
N2O (mole gas/mole cmpd) [2]: 1.52 mole gas/mole cmpd | NO (mole gas/mole cmpd) ([1]; acid (10% H2SO4)): 0.46 mole gas/mole cmpd | NO (mole gas/mole cmpd) ([1]; pH 7.4 buffer): 0.36 mole gas/mole cmpd
